In US7795290B2 (Genentech, Inc., priority 2004, dated 2010):

Target: T1, AKT1 (Homo sapiens, UniProt P31749)
T1 construct: purchased Upstate 14-276
Assay: HTS ATP-utilizing enzyme assay, off-chip mobility-shift (Caliper HTS 250)
Type: biochemical
Conditions: kinase named = inhibitory activity/selectivity; test compound 10 μM; active = greater than three-sigma from mean
Description: The following procedures describe the reagent and plate preparation for a HTS of an ATP-utilizing enzyme, such as a protein kinase, run in an off-chip mobility-shift assay format. The following provides an HTS protocol for running a protein kinase HTS screen on a Caliper HTS 250 microfluidics system. The following parameters are dependent on the protein kinase used and can be determined by one skilled in the art as part of a typical assay development process. For example, the peptide substrate used can be identified from the current literature, by screening a peptide library of potential protein kinase substrates, or by other applicable means accepted in the field.
The following table provides typical screen assay parameters appropriate for a Caliper HTS 250 microfluidics system used to assay AKT1. Parameters used to assay other protein kinases can be determined by one skilled in the art.
Assays to determine the kinase inhibitory activity of chemical entities of the present disclosure were performed using a Caliper HTS 250 microfluidics device, Greiner U-bottom assay plates, a Multidrop for transfer of reagents, and Biomek FX (AMNCBM03) software. Initially, 2.4 μL of a 1 mM solution of a test compound in 100% DMSO was added to a well of the Greiner U-bottom plate. A single Greiner U-bottom plate having 24×16 wells could include multiple test compounds. […] Using the Biomek FX, 10 μL of 0.5 M EDTA was added by the span-8 to wells, indicated as 100% Control and 2.4 μL of 100% DMSO was added by the span-8 to wells, indicated as 0% Control. […] The total reaction volume in each well was 25 μL, and the concentration of the test compound was 10 μM. The assay plate was incubated for 2.5 hrs at 20° C. to 22° C. […] The inhibition of the ATP-utilizing enzyme, such as a particular protein kinase, was determined by measuring the ratio of the peptide substrate to phosphorylated product for each well of the assay plate using the Caliper HTS 250 system.
The use of three-sigma statistical limits represents a conservative method for declaring potential hits among targets. The three-sigma activity, as well as the mean population activity, can be different for each target enzyme.
Each chemical entity listed in Table 2 was tested for protein kinase inhibitory activity according to the biological assays and definitions of protein kinase inhibitory activity as described herein.

T1 sequence (P31749 whole entry): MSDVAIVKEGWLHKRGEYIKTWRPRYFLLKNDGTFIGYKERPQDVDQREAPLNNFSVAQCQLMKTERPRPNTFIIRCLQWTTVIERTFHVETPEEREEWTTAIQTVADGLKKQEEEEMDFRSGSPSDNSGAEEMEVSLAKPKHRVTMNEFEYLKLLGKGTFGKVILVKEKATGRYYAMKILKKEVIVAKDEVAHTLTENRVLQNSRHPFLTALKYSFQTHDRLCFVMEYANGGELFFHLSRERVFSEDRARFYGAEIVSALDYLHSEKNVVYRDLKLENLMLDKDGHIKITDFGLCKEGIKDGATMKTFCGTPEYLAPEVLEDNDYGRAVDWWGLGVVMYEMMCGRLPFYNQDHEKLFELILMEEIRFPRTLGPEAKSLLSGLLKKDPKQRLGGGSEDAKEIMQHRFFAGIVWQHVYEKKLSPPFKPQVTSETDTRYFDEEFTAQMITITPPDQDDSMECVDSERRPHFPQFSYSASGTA

Activity, AKT1:
COc1ccc(-c2csc(N(CCCN3CCCCCC3)C(=O)c3ccco3)n2)cc1 [N-(3-(azepan-1-yl)propyl)-N-(4-(4-methoxyphenyl)thiazol-2-yl)furan-2-carboxamide], COc1ccc(-c2csc(N(CCCN3CCCCCC3)C(=O)c3cccs3)n2)cc1 [N-(3-(azepan-1-yl)propyl)-N-(4-(4-methoxyphenyl)thiazol-2-yl)thiophene-2-carboxamide], O=C(c1ccccc1)N(CCCN1CCCCCC1)c1nc(-c2ccccc2)cs1 [N-(3-(azepan-1-yl)propyl)-N-(4-phenylthiazol-2-yl)benzamide], O=C(c1ccco1)N(CCCN1CCCCCC1)c1nc(-c2ccccc2)cs1 [N-(3-(azepan-1-yl)propyl)-N-(4-phenylthiazol-2-yl)furan-2-carboxamide], O=C(c1cccs1)N(CCCN1CCCCCC1)c1nc(-c2ccccc2)cs1 [N-(3-(azepan-1-yl)propyl)-N-(4-phenylthiazol-2-yl)thiophene-2-carboxamide], CCN(CC)CCCN(C(=O)c1ccccc1)c1nc(-c2cc(OC)ccc2OC)cs1 [N-(3-(diethylamino)propyl)-N-(4-(2,5-dimethoxyphenyl)thiazol-2-yl)benzamide], CCN(CC)CCCN(C(=O)c1ccco1)c1nc(-c2cc(OC)ccc2OC)cs1 [N-(3-(diethylamino)propyl)-N-(4-(2,5-dimethoxyphenyl)thiazol-2-yl)furan-2-carboxamide], CCN(CC)CCCN(C(=O)c1cccs1)c1nc(-c2cc(OC)ccc2OC)cs1 [N-(3-(diethylamino)propyl)-N-(4-(2,5-dimethoxyphenyl)thiazol-2-yl)thiophene-2-carboxamide], CCN(CC)CCCN(C(=O)c1cccs1)c1nc(-c2ccc(OC)c(OC)c2)cs1 [N-(3-(diethylamino)propyl)-N-(4-(3,4-dimethoxyphenyl)thiazol-2-yl)thiophene-2-carboxamide], CCN(CC)CCCN(C(=O)c1ccccc1)c1nc(-c2ccc(OC)cc2)cs1 [N-(3-(diethylamino)propyl)-N-(4-(4-methoxyphenyl)thiazol-2-yl)benzamide], CCN(CC)CCCN(C(=O)c1ccco1)c1nc(-c2ccccc2)cs1 [N-(3-(diethylamino)propyl)-N-(4-phenylthiazol-2-yl)furan-2-carboxamide], CCN(CC)CCCN(C(=O)c1cccs1)c1nc(-c2ccccc2)cs1 [N-(3-(diethylamino)propyl)-N-(4-phenylthiazol-2-yl)thiophene-2-carboxamide], CS(=O)(=O)Nc1cccc(NC(=O)c2csc(N(CCCN3CCOCC3)C(=O)c3cccs3)n2)c1 [N-(3-(methylsulfonamido)phenyl)-2-(N-(3-morpholinopropyl)thiophene-2-carboxamido)thiazole-4-carboxamide], CC(=O)NCCCN(C(=O)c1cccs1)c1nc(-c2cc3ccccc3o2)cs1 [N-(3-acetamidopropyl)-N-(4-(benzofuran-2-yl)thiazol-2-yl)thiophene-2-carboxamide], NC(=O)c1cccc(NC(=O)c2csc(N(CCCN3CCOCC3)C(=O)c3cccs3)n2)c1 [N-(3-carbamoylphenyl)-2-(N-(3-morpholinopropyl)thiophene-2-carboxamido)thiazole-4-carboxamide], O=C(NCc1cccc(Cl)c1)c1csc(N(CCCN2CCOCC2)C(=O)c2cccs2)n1 [N-(3-chlorobenzyl)-2-(N-(3-morpholinopropyl)thiophene-2-carboxamido)thiazole-4-carboxamide], COc1cccc(CNC(=O)c2csc(N(CCCN3CCOCC3)C(=O)c3cccs3)n2)c1 [N-(3-methoxybenzyl)-2-(N-(3-morpholinopropyl)thiophene-2-carboxamido)thiazole-4-carboxamide], COc1cccc(NC(=O)c2csc(N(CCCN3CCOCC3)C(=O)c3cccs3)n2)c1 [N-(3-methoxyphenyl)-2-(N-(3-morpholinopropyl)thiophene-2-carboxamido)thiazole-4-carboxamide], O=C(c1cccs1)N(CCCN1CCOCC1)c1nc(-c2ccccc2C(F)(F)F)cs1 [N-(3-morpholinopropyl)-N-(4-(2-(trifluoromethyl)phenyl)thiazol-2-yl)thiophene-2-carboxamide], O=C(c1cccs1)N(CCCN1CCOCC1)c1nc(-c2ccccc2[N+](=O)[O-])cs1 [N-(3-morpholinopropyl)-N-(4-(2-nitrophenyl)thiazol-2-yl)thiophene-2-carboxamide], O=C(c1cccs1)N(CCCN1CCOCC1)c1nc(-c2cccc(C(F)(F)F)c2)cs1 [N-(3-morpholinopropyl)-N-(4-(3-(trifluoromethyl)phenyl)thiazol-2-yl)thiophene-2-carboxamide], O=C1COc2ccc(-c3csc(N(CCCN4CCOCC4)C(=O)c4cccs4)n3)cc2N1 [N-(3-morpholinopropyl)-N-(4-(3-oxo-3,4-dihydro-2H-benzo[b][1,4]oxazin-6-yl)thiazol-2-yl)thiophene-2-carboxamide], O=C(c1ccco1)N(CCCN1CCOCC1)c1nc(-c2cc(-c3ccccc3)no2)cs1 [N-(3-morpholinopropyl)-N-(4-(3-phenylisoxazol-5-yl)thiazol-2-yl)furan-2-carboxamide], O=C(c1cccs1)N(CCCN1CCOCC1)c1nc(-c2cc(-c3ccccc3)no2)cs1 [N-(3-morpholinopropyl)-N-(4-(3-phenylisoxazol-5-yl)thiazol-2-yl)thiophene-2-carboxamide], O=C(c1cccs1)N(CCCN1CCOCC1)c1nc(-c2ccc(N3CCCC3)cc2)cs1 [N-(3-morpholinopropyl)-N-(4-(4-(pyrrolidin-1-yl)phenyl)thiazol-2-yl)thiophene-2-carboxamide], O=C(c1cccs1)N(CCCN1CCOCC1)c1nc(-c2ccc(OC(F)(F)F)cc2)cs1 [N-(3-morpholinopropyl)-N-(4-(4-(trifluoromethoxy)phenyl)thiazol-2-yl)thiophene-2-carboxamide], CCCCCc1ccc(-c2csc(N(CCCN3CCOCC3)C(=O)c3cccs3)n2)cc1 [N-(3-morpholinopropyl)-N-(4-(4-pentylphenyl)thiazol-2-yl)thiophene-2-carboxamide], O=C(c1cccs1)N(CCCN1CCOCC1)c1nc(-c2ccc(-c3ccccn3)s2)cs1 [N-(3-morpholinopropyl)-N-(4-(5-(pyridin-2-yl)thiophen-2-yl)thiazol-2-yl)thiophene-2-carboxamide], O=C(c1cccs1)N(CCCN1CCOCC1)c1nc(-c2cc3cc([N+](=O)[O-])ccc3o2)cs1 [N-(3-morpholinopropyl)-N-(4-(5-nitrobenzofuran-2-yl)thiazol-2-yl)thiophene-2-carboxamide], O=C(c1cccs1)N(CCCN1CCOCC1)c1nc(-c2ccc3ccccc3c2)cs1 [N-(3-morpholinopropyl)-N-(4-(naphthalen-2-yl)thiazol-2-yl)thiophene-2-carboxamide], O=C(c1cccs1)N(CCCN1CCOCC1)c1nc(-c2ccccn2)cs1 [N-(3-morpholinopropyl)-N-(4-(pyridin-2-yl)thiazol-2-yl)thiophene-2-carboxamide], O=C(c1cccs1)N(CCCN1CCOCC1)c1nc(-c2cccs2)cs1 [N-(3-morpholinopropyl)-N-(4-(thiophen-2-yl)thiazol-2-yl)thiophene-2-carboxamide], O=C(c1cccs1)N(CCCN1CCOCC1)c1nc(C(F)(F)F)cs1 [N-(3-morpholinopropyl)-N-(4-(trifluoromethyl)thiazol-2-yl)thiophene-2-carboxamide], Cc1ccc(-c2csc(N(CCCN3CCOCC3)C(=O)c3cccs3)n2)cc1 [N-(3-morpholinopropyl)-N-(4-p-tolylthiazol-2-yl)thiophene-2-carboxamide], O=C(c1ccccc1)N(CCCN1CCOCC1)c1nc(-c2ccccc2)cs1 [N-(3-morpholinopropyl)-N-(4-phenylthiazol-2-yl)benzamide]
